Experimental data reported in US8105796B2, “Regulation of expression of PI3Kβ protein in tumors” (Universita' Degli Studi di Torino, priority 2007, dated 2012).

Tests used:
PI3Kβ^+/+ MEFs = assay: Proliferation curve of mouse embryonic fibroblasts (MEFs) with p110β inhibitors; assay type: cell-based
Experimental: FIG. 3. PI3Kβ^KR expression dosage inversely correlates with phenotype severity. a) MEFs were derived from normal (PI3Kβ^KR/KR(High)) or abnormal PI3Kβ^KR/KR (Low)) embryos and the expression level of the PI3Kβ^KR/KR protein was analyzed by SDS-PAGE and immunoblotting, using the indicated antibodies. b) analysis of p110β catalytic activity. Lipid kinase assay was performed on p110β immunoprecipitated from wild type (PI3Kβ^+/+) and PI3Kβ^KR/KR(High) MEFs. c) proliferation curve of mutant MEFs with high and low PI3Kβ^KR expression levels compared to that of wild-type MEFs with or without 100 nM TGX-221 treatment (TGX).
Since p110β is activated downstream growth factor receptors, and cell growth is the driving force during embryonic development, the present inventors analyzed cell proliferation of PI3Kβ^KR/KR(High), PI3Kβ^KR/KR(Low) and PI3Kβ^+/+ MEFs.

[1] = test system: wild-type (PI3Kβ^+/+/neuT) tumor derived mammary gland cancer cells; assay: Proliferation curves of cultured tumor derived mammary gland cancer cells; assay type: cell-based, mouse; details: wild-type tumor cells (FIG. 10)
Experimental: FIG. 10. Requirement of PI3Kβ for cell proliferation of tumor derived mammary gland cancer cell lines. Proliferation curves of cultured tumor cells of the two genotypes in the absence or presence of TGX-155 (10 μM) and TGX-221 (100 nM)p110β selective inhibitors. Statistical significance: wild-type cells vs all other conditions; other pairs of datasets: n.s.
Moreover, to further test if the protection against breast cancer development was intrinsic to the lack of the kinase activity, tumor cells from PI3Kβ^KR/KR and PI3Kβ^+/+ mice were cultured in the presence of p110β selective inhibitors, TGX-155 and TGX-221.

[2] = test system: Akt/PKB phosphorylation in liver; assay: Insulin-stimulated Akt phosphorylation in liver of treated mice; assay type: in vivo, mouse
Experimental: FIG. 5. After insulin stimulation, Akt phosphorylation declines in PI3Kβ^KR/KR liver faster than controls. Phosphorylation of Erk1/2 and Akt (on Thr308 and Ser473) in livers of mice of the given genotype with and without TGX-155 treatment. Lower panel: quantification of Akt phosphorylation on Ser473 (n=5)
To test this hypothesis, Akt/PKB phosphorylation was tested in wild-type and mutant mice in tissues known to be particularly sensitive to insulin signaling like the liver.

SMILES | growth rate (cell proliferation) of MEFs (PI3Kβ^+/+ MEFs; PI3Kβ^+/+ MEFs, 100 nM TGX-221, versus controls (FIG. 3c)) | proliferation of wild-type tumor cells ([1]; TGX-221 100 nM) | growth rate (cell proliferation) of MEFs (PI3Kβ^+/+ MEFs; PI3Kβ^+/+ MEFs treated with TGX-155, versus controls) | Akt phosphorylation after 5 minutes of insulin stimulation ([2]; liver of wild type mice treated with TGX-155, 5 minutes of insulin stimulation (FIG. 5)) | decline of Akt activation after insulin stimulation ([2]; liver, later time of insulin stimulation, versus untreated wild-type controls (FIG. 5)) | proliferation of wild-type tumor cells ([1]; TGX-155 10 μM)
Cc1cc(C(C)Nc2ccccc2)c2nc(N3CCOCC3)cc(=O)n2c1 (stereo not drawn) [TGX-221] | growth rate comparable to that of the controls | significant reduction in proliferation |  |  |  | 
Cc1cc(F)ccc1Oc1cccc2c(=O)cc(N3CCOCC3)[nH]c12 [TGX-155] |  |  | growth rate comparable to that of the controls | no differences in Akt phosphorylation | declined significantly faster | significant reduction in proliferation
